Assay results: patent US20260335468A1, “MOLECULAR RADIOAFTERGLOW PROBES FOR CANCER RADIODYNAMIC THERANOSTICS” (NANYANG TECHNOLOGICAL UNIVERSITY, priority 2023, published 2026)

How the values were obtained:
[1] = tested on: subcutaneous U87 tumour; test: RDT of subcutaneous U87 tumour-bearing mice with IDPASu; type: in vivo, mouse (BALB/c nude), human U87; details: intratumoral, X-ray total 0.3 Gy in three fractions
Protocol: To establish a subcutaneous glioblastoma mouse model, BALB/c nude mice (six weeks old, female) were anaesthetized with isoflurane (2.0%) and subcutaneously injected with human U87 or U87-Luc (2×10^6 per mouse) suspended in PBS (0.01 M, pH 7.4) on the left flank or bilateral flank of each mouse. The tumour size was calculated according to the formula V=½ab^2, where a and b are the longest and shortest diameter of the tumour, respectively. After tumour sizes reached ~70 mm^3, the mice were used for imaging and therapy. […] At 15 min post-injection, bioluminescence signals were recorded using an IVIS imaging system with an open filter and automatic acquisition time. […]
For subcutaneous tumour therapy, to study the X-ray dynamic activity of IDPASu, U87-tumour-bearing mice were randomly divided into four groups (PBS, PBS+X-ray, IDPASu and IDPASu+X-ray), which includes five mice per group. […] The tumour volume and body weight of mice were monitored every two days. […] The brain tumour size was monitored using bioluminescence signals of luciferin from the tumour site every three days. […]

[2] = Radio afterglow spectra, intensity and half-life of luminophores in PBS after X-ray; type: physicochemical
Protocol: The optical properties of DPAs and IDPAs were investigated in an aqueous solution (FIGS. 2 and 3). […] Their half-lives ranged from 9.2 to 196.8 min (FIG. 4e).
DPAs or IDPAs (100 μM) in 0.01 M PBS (pH 7.4, 50% DMSO) were irradiated by X-rays at 250 μGy s^−1 for 20 s (total, 5 mGy) under the specific setup parameter of 10 kV and 75 μA. Then, the radio afterglow signal was collected with an IVIS imaging system under the bioluminescence mode with an open filter and an acquisition time of 60 s. Finally, the radio afterglow intensities were quantified by a region-of-interest analysis using Living Image 4.3 software. In addition, the radio afterglow spectra of the candidates were acquired under the same test conditions with specific emission filters, and time courses of the signal were recorded as a function of time.

[3] = Afterglow through chicken breast tissue (tissue penetration depth study); type: physicochemical
Protocol: IDPASu (100 M, 100 l) solution in a round cap with a diameter of 1 cm was prepared and placed under the chicken breast tissue with different thicknesses (0, 1.0, 2.5, 5.0, 10.0 and 15.0 cm). To avoid the influence of afterglow intensity differences on tissue penetration, the X-ray source (Moxtek, Inc.) and xenon lamp (PLS-SEX300D, Beijing Perfectlight Technology Co., Ltd.) were optimized to ensure that all the samples at 0 cm (without coverage) received the same dose of X-rays (5 mGy, 250 μGy s^−1 for 20 s) or light (180 mW cm^−2 for 20 s) and thus the same afterglow intensity. After the cessation of irradiation, radio afterglow or photoafterglow was detected with or without the chicken breast tissues using the IVIS bioluminescence mode with an open filter and acquisition time of 120 s.
To induce afterglow, IDPASu was irradiated with X-ray or light through chicken breast tissues before signal detection (FIGS. 11a-b). To eliminate the influence of intensity difference on tissue penetration, X-ray and light irradiation were optimized to ensure similar intensity without tissue coverage. […] Radio afterglow of IDPASu was inducible and detectable even through ~15 cm tissue, showing ~4.2-fold higher signal than that of IDPASu without X-ray irradiation and tissue (FIG. 11d).

[4] = Heat generation study; type: physicochemical; details: 100 μM, X-ray 5 mGy
Protocol: IDPASu (100 μM, 100 μL) solution and PBS in a round cap with the diameter of 1 cm were prepared and then irradiated by X-ray at dose of 5 mGy (250 μGy·s^−1 for 20 s), respectively. The temperatures of the IDPASu solution and PBS were recorded by FUR Infrared Camera (FLIR A35-Series, FUR Systems).

radio afterglow emission maximum ([2]; X-ray 250 μGy s^−1 for 20 s, aqueous solution): ~ 773 nm | heat generation upon radiation [4]: did not cause any heat generation
SMILES: COC(=C1C2CC3CC(C2)CC1C3)c1cc(O)c(I)cc1/C=C/C1=CC(=C(C#N)C#N)c2ccccc2S1 [IDPASu]
body weight loss [1]: no loss in body weight | tumour growth [1]: completely inhibited the tumour growth | radio afterglow intensity increase versus iodine-free counterpart ([2]; 100 μM, PBS pH 7.4, 50% DMSO, X-ray 5 mGy): 6.46 fold | correlation of radio afterglow signal with concentration ([2]; IDPASu solution): linear correlation | long-lasting radio afterglow, up to ([2]; X-ray 250 μGy s^−1 for 20 s): ~ 25 h | radio afterglow brightness / intensity ([2]; X-ray irradiation): highest brightness | repetitive induction of radio afterglow ([2]; after ten cycles of X-ray irradiation): minimal intensity decrease after ten cycles | radio afterglow signal through ~15 cm tissue versus IDPASu without X-ray irradiation and tissue ([3]; 15 cm chicken breast tissue): ~ 4.2 fold | penetration depth, Detection with tissue (induction without tissue) ([3]; X-ray 0.005 Gy): 15 cm | penetration depth, Induction and detection through tissue ([3]; X-ray 0.005 Gy): 5 cm | radio afterglow intensity at tissue depth of 1 cm ([3]; induction by X-ray through tissue, detection without tissue): ~ 1.79×10^6 photons s^−1 cm^−2 sr^−1 | photoafterglow intensity at tissue depth of 1 cm ([3]; induction by light through tissue, detection without tissue): 7.20×10^4 photons s^−1 cm^−2 sr^−1
